Starred links: 1 amine or outer side, 2 acyl side, 3 side chain; linkers in the order of their positions; H or OH if unused. Non-standard residues stand in square brackets, D forms with d. Residues, ends and D or L forms follow the SMILES beside them. *: point of attachment. C20 diacid = O=C(O)CCCCCCCCCCCCCCCCCCC(=O)*; C18 diacid = O=C(O)CCCCCCCCCCCCCCCCC(=O)*; γGlu = O=C(O)[C@H](CCC(=O)[*:2])N[*:1]; Hyp = O=C(O)[C@@H]1C[C@@H](O)CN1; AEEA = NCCOCCOCC(=O)O

Broadly, the EC50 is the concentration giving half of the maximal effect. Read a high EC50 as a less potent agent.

The test concerns the target T1, human amylin receptors (Homo sapiens, UniProt O60896+P30988).
T1 construct: host or cells: CHO-K1/Ga15/AMY3 cells, further stably transfected with a CRE-luciferase plasmid
T1 sequence (P30988 25-474): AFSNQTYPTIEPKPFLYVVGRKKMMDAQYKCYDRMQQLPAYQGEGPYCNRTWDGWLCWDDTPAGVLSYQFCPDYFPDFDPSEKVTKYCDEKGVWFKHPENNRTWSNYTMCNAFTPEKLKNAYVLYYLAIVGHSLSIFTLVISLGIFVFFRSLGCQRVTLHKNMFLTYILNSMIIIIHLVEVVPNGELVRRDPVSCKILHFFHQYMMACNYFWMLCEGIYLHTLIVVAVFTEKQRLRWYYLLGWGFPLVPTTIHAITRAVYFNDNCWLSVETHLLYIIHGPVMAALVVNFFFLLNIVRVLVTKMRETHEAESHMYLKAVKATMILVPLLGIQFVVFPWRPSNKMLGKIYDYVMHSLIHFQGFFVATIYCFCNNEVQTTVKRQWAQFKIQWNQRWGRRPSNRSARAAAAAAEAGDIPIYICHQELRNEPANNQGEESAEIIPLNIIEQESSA
T1 sequence (O60896 24-148 partner): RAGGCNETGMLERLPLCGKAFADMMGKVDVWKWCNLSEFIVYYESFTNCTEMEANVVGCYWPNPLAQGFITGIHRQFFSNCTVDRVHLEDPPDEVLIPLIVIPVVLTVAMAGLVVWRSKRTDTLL
The test can be described thus: Luciferase assay in stably transfected amylin receptor/CRE-luc CHO cell line. The format is cell-based. Particulars: for Relative activity: EC50 ratio of Cagrilintide to the compound, Cagrilintide 100%; for EC50: amylin receptor/CRE-luc CHO cells, 24 hours incubation, luminescence.

`CC[C@H](C)[C@H](NC(=O)[C@@H]1CCCN1C(=O)[C@H](CCCCN)NC(=O)[C@H](CC(C)C)NC(=O)[C@H](CC(N)=O)NC(=O)[C@H](CC(N)=O)NC(=O)[C@H](CO)NC(=O)[C@H](CO)NC(=O)[C@H](Cc1c[nH]cn1)NC(=O)[C@H](CCCNC(=N)N)NC(=O)[C@H](CC(C)C)NC(=O)[C@H](Cc1ccccc1)NC(=O)[C@H](CC(=O)O)NC(=O)[C@H](C)NC(=O)[C@H](CC(C)C)NC(=O)[C@H](CCCNC(=N)N)NC(=O)[C@H](CCC(N)=O)NC(=O)[C@@H](NC(=O)[C@H](C)NC(=O)[C@H](C)NC(=O)[C@@H](NC(=O)[C@H](CO)NC(=O)[C@H](CC(C)C)NC(=O)[C@H](CCC(N)=O)NC(=O)[C@H](CO)NC(=O)[C@H](C)NC(=O)CC[C@H](NC(=O)CCCCCCCCCCCCCCCCC(=O)O)C(=O)O)[C@@H](C)O)[C@@H](C)O)C(=O)N[C@@H](CC(C)C)C(=O)N1CCC[C@H]1C(=O)N1CCC[C@H]1C(=O)N[C@H](C(=O)N[C@@H](CC(N)=O)C(=O)N[C@H](C(=O)NCC(=O)N[C@@H](CO)C(=O)N[C@@H](CC(N)=O)C(=O)N[C@H](C(=O)N1C[C@H](O)C[C@H]1C(N)=O)[C@@H](C)O)C(C)C)[C@@H](C)O` [M37] ({C18 diacid-γGlu}-ASQLSTAATQRLADFLRHSSNNLKPILPPTNVGSNT[Hyp]-NH2): the Relative activity amounted to 184% and the EC50 is 0.03 nM.
For `CC[C@H](C)[C@H](NC(=O)[C@H](CC(=O)O)NC(=O)[C@H](CCCNC(=N)N)NC(=O)[C@H](CC(=O)O)NC(=O)[C@H](CCCNC(=N)N)NC(=O)[C@H](CC(=O)O)NC(=O)[C@@H](NC(=O)[C@H](Cc1ccccc1)NC(=O)[C@H](Cc1c[nH]cn1)NC(=O)[C@H](CCCNC(=N)N)NC(=O)[C@H](CC(C)C)NC(=O)[C@H](Cc1ccccc1)NC(=O)[C@H](CC(=O)O)NC(=O)[C@H](C)NC(=O)[C@H](CC(C)C)NC(=O)[C@H](CCCNC(=N)N)NC(=O)CNC(=O)[C@H](CC(C)C)NC(=O)[C@H](C)NC(=O)[C@H](C)NC(=O)[C@@H](NC(=O)[C@H](CO)NC(=O)[C@H](CC(C)C)NC(=O)[C@H](CCC(=O)O)NC(=O)[C@H](CO)NC(=O)[C@H](C)NC(=O)CC[C@H](NC(=O)CCCCCCCCCCCCCCCCCCC(=O)O)C(=O)O)[C@@H](C)O)[C@@H](C)O)C(=O)N[C@@H](CC(C)C)C(=O)N1CCC[C@H]1C(=O)N1CCC[C@H]1C(=O)N[C@H](C(=O)N[C@@H](CC(N)=O)C(=O)N[C@H](C(=O)NCC(=O)N[C@@H](CO)C(=O)N[C@@H](CC(N)=O)C(=O)N[C@H](C(=O)N1CCC[C@H]1C(N)=O)[C@@H](C)O)C(C)C)[C@@H](C)O` [M3] ({C20 diacid-γGlu}-ASELSTAALGRLADFLRHFTDRDRDILPPTNVGSNTP-NH2), the Relative activity was found to be 32% and the EC50 was determined as 0.081 nM.
In the case of `CC[C@H](C)[C@H](NC(=O)[C@@H]1CCCN1C(=O)[C@H](CCCCN)NC(=O)[C@H](CC(C)C)NC(=O)[C@H](CC(N)=O)NC(=O)[C@H](CC(N)=O)NC(=O)[C@H](CO)NC(=O)[C@H](CO)NC(=O)[C@H](Cc1c[nH]cn1)NC(=O)[C@H](CCCNC(=N)N)NC(=O)[C@H](CC(C)C)NC(=O)[C@H](Cc1ccccc1)NC(=O)[C@H](CC(=O)O)NC(=O)[C@H](C)NC(=O)[C@H](CC(C)C)NC(=O)[C@H](CCCNC(=N)N)NC(=O)[C@H](CCC(N)=O)NC(=O)[C@@H](NC(=O)[C@H](C)NC(=O)[C@H](C)NC(=O)[C@@H](NC(=O)[C@H](CO)NC(=O)[C@H](CC(C)C)NC(=O)[C@H](CCC(N)=O)NC(=O)[C@H](CO)NC(=O)[C@H](C)NC(=O)COCCOCCNC(=O)COCCOCCNC(=O)[C@H](CCC(=O)O)NC(=O)CCCCCCCCCCCCCCCCCCC(=O)O)[C@@H](C)O)[C@@H](C)O)C(=O)N[C@@H](CC(C)C)C(=O)N1CCC[C@H]1C(=O)N1CCC[C@H]1C(=O)N[C@H](C(=O)N[C@@H](CC(N)=O)C(=O)N[C@H](C(=O)NCC(=O)N[C@@H](CO)C(=O)N[C@@H](CC(N)=O)C(=O)N[C@H](C(=O)N1C[C@H](O)C[C@H]1C(N)=O)[C@@H](C)O)C(C)C)[C@@H](C)O` [M32] ({C20 diacid}-E[AEEA][AEEA]ASQLSTAATQRLADFLRHSSNNLKPILPPTNVGSNT[Hyp]-NH2), the Relative activity came to 44% and the EC50 is 0.115 nM.

(Values after patent US20260265329A1, “POLYPEPTIDE AND DERIVATIVE THEREOF, COMPOSITION, AND USE THEREOF” (HANGZHOU SCIWIND BIOSCIENCES CO., LTD., priority 2023, published 2026).)
